Measurements: patent publication US6710048B2, “Pyrazine derivatives as modulators of tyrosine kinases” (Ortho-McNeil Pharmaceutical, Inc., priority 2000, dated 2004)

What was measured:
[1] = tested on: MDA-MB-231; test: Cell proliferation assay (14C-thymidine incorporation), MDA-MB-231; format: cell-based; conditions: Homo sapiens, read-out: Inhibition of cell proliferation IC50
Procedure: (§1) The ability of a test compound to inhibit the proliferation of cell growth was determined by measuring incorporation of ^14C-labelled thymidine into newly synthesized DNA within the cells. This method was used on cell lines derived from carcinomas originating from several tissues such as HeLa cervical adenocarcinoma (American Type Culture Collection (ATCC), Virginia, Cat. #CCL-2), A375 malignant melanoma (ATCC CRL-1619), SK-OV-3 ovarian adenocarcinoma (ATCC HTB-77) HCT-116 colon carcinoma (CCL-247) and PC-3 prostate adenocarcinoma (ATCC CRL-1435). The method was also used on primary cells such as HUVEC endothelial cells (ATCC CRL-1730). In this way the effect of a compound on cell growth of cells with many different phenotypes can be determined. Cells were trypsinized and counted and 3000-8000 cells were added to each well of a 96-well CytoStar tissue culture treated scintillating microplate (Amersham #RPNQ0160) in complete medium in a volume of 100 μl. Cells were incubated for 24 hours in complete medium at 37° C. in an atmosphere containing 5% CO2.
(§2) Next, 1 μl of test compound in 100% DMSO was added to the wells of the plate. DMSO only was added to control wells. Cells were incubated for 24 more hours in complete medium at 37° C. in an atmosphere containing 5% CO2. Methyl ^14C-thymidine 56 mCi/mmol (NEN #NEC568 or Amersham #CFA532) was diluted in complete medium and 0.2 μCi/well was added to each well of the CytoStar plate in a volume of 20 μl. The plate was incubated for 24 hours at 37° C. plus 5% CO2 in drug plus ^14C-thymidine. The contents of the plate were discarded into a ^14C radioactive waste container by inverting the plate and the plate was washed twice with 200 μl PBS. 200 μl of PBS is then added to each well. The top of the plate was sealed with a transparent plate sealer and a white plate backing sealer (Packard #6005199) was applied to the bottom of the plate. The degree of Methyl ^14C-thymidine incorporation was quantified on a Packard Top Count.

[2] = tested on: SK-OV-3 ovarian adenocarcinoma; test: Cell proliferation assay (14C-thymidine incorporation), SK-OV-3; format: cell-based; conditions: Homo sapiens, read-out: Inhibition of cell proliferation IC50
Procedure: as §1, §2

[3] = tested on: rat aortic ring; test: Rat aortic ring assay (vascular sprouting); format: cell-based; conditions: 192 h; rat aortic ring in fibrin gel, analyzed on day 8; read-out: Inhibition of Vascular Sprouting (IC50μM)
Procedure: The rat aortic ring assay is a rapid in vitro assay that measures new capillary growth in an environment that closely approximates the in vivo conditions of the extracellular matrix. The assay was performed as described (Nicosia, R F and Ottinetti, A. Growth of new microvessels in serum-free matrix culture of rat aorta. Lab Invest., 63: 115-122, 1990). Thoracic aortas were removed from 1 to 2-month old male Sprague-Dawley rats and transferred to a culture dish containing serum-free MCDB 131 medium (Clonetics). Extraneous tissue was removed and the aorta was sectioned into rings approximately 1 mm long and rinsed 8-10 times in serum-free medium. A solution of sterile 1.5% agarose (Type VI-A, Sigma, St. Louis, Mo.) was added to the wells of a 6-well plate. The wells were filled with clotting fibrinogen solution and an aortic ring was transferred into the well positioned with the lumen oriented horizontally in the center of the fibrin gel solution. The fibrinogen solution was prepared in MCDB 131 medium with bovine fibrinogen at 3 mg/ml. Clotting was initiated by adding 20 μl of a 50 NIH units/ml bovine thrombin solution and the fibrin gel generally formed within 30 seconds. The fibrinolytic inhibitor amino-n-caproic acid was added to the culture medium at 300 µg/ml (microgram per milliliter) for the first four days of the assay and at 50 μg/ml from day 5 to day 8. Once the fibrin gel solution solidified, 5 ml of serum-free MCDB 131 media containing 100 μg/ml penicillin, 100 μg/ml streptomycin and 0.25 μg/ml amphotericin B was added to each well. Explants were incubated at 37° C. with 5% CO2 for 8 days. Medium was replaced every 2-3 days and the assay was analyzed on day 8. Inhibition of vascular sprouting was measured by adding test compounds diluted in DMSO.

[4] = tested on: HeLa cervical adenocarcinoma; test: Cell proliferation assay (14C-thymidine incorporation), HeLa; format: cell-based; conditions: Homo sapiens, read-out: Inhibition of cell proliferation IC50
Procedure: as §1, §2

[5] = tested on: A375 human melanoma cells; test: In vivo inhibition of tumor growth (A375 in athymic mice); set-up: species or system mouse; conditions: A375 cells s.c. in male athymic mice, intraperitoneally once a day for 30 days, 50 mg/Kg and 5 mg/Kg (FIG. 1)
Excerpt: The in vivo effect of a compound on the growth of human tumor cells can be evaluated by implanting human tumor cells into the hindflank of athymic mice and administering test compound to the mice. Such assays are useful in identifying and confirming compounds that are useful for inhibiting angiogenesis or to identify compounds that can inhibit VEGF activity and therefor are useful for treating a variety of cancers or other diseases associated with abnormal or aberrant angiogenesis, such as those diseases discussed supra. Human tumor cells originating from a variety of different cancer types, such as A375 human melanoma cells, were implanted subcutaneously into the hindflank of male athymic mice (Charles River) and allowed to establish a sizeable tumor for 6-10 days as determined by caliper measurements. Test compound was then administered by injecting the compound formulated in an appropriate vehicle, here saline was used as the vehicle, intraperitoneally into the mice once a day for 30 days. The test compound can also be administered by other routes such as orally, sub cutaneously or by intravenous infusion. The size of the tumor in this study was measured every four days and the degree of inhibition was determined by comparing drug-treated animals to animals that were injected with vehicle only. […]

[6] = tested on: PC-3 prostate adenocarcinoma; test: Cell proliferation assay (14C-thymidine incorporation), PC-3; format: cell-based; conditions: Homo sapiens, read-out: Inhibition of cell proliferation IC50
Procedure: as §1, §2

[7] = tested on: HCT-116 colon carcinoma; test: Cell proliferation assay (14C-thymidine incorporation), HCT-116; format: cell-based; conditions: Homo sapiens, read-out: Inhibition of cell proliferation IC50
Procedure: as §1, §2

| IC50 [1] [µM] | IC50 [2] [µM] | IC50 [3] [µM] | IC50 [4] [µM] | IC50 [6] [µM] | IC50 [7] [µM] | Structure (SMILES) | tumor growth delay (tumor size) [5] | tumor growth delay (tumor size) ([5]; listed as compound 33) |
| --- | --- | --- | --- | --- | --- | --- | --- | --- |
| 12.7 | 21.5 | > 1 | 2.23 | 22.9 | > 100 | CN(C)CCNc1cncc(-c2cncc(Nc3cccc(Cl)c3)n2)c1 [Cmd 33, N′-[5-[6-[(3-chlorophenyl)amino]pyrazinyl]-3-pyridinyl]-N^2,N^2-dimethyl-1,2-ethanediamine] | delay of tumor size progression | tumor growth delay |
|  | 3.78 |  | 2.2 |  |  | Clc1cccc(Nc2cncc(-c3cncc(NCCCN4CCCCC4)c3)n2)c1 [Cmd 73] |  |  |
